Test results: patent US10993437B2, “Anti-microbial polymer incorporating a quaternary ammonium group” (priority 2013, dated 2021)

What was measured:
Type in all cases: cell-based
Bacillus cereus = assay: Antibiotic disk susceptibility test, rings of inhibition; conditions: for B. cereus, diameter of ring of inhibition, antimicrobial paper towels: 6 mm paper discs punched from paper towels, antibiotic control discs 10 or 30 ug; for B. cereus, diameter of ring of inhibition: Mueller-Hinton plate, 18-24 hrs at 37° C., 100 μg of compound per disc, control discs 10 or 30 μg
Protocol: (§1) Compounds were tested for antibacterial activity, as described in Ma et al. (2011), against pure cultures of Escherichia coli, Pseudomonas aeruginosa, Bacillus cereus, Proteus mirabilis/hauseri, and Staphylococcus aureus, supplied by Ward's Natural Science Ltd. (St. Catherines, Ontario, Canada). All cultures were maintained on Tryptic Soy agar. These cultures were then transferred using an inoculation loop to 10 mL of Tryptic soy broth, and grown at 37° C. for 24 hours. Triplicates of plate and broth cultures were made in case of error or contamination. Using a sterile swab, and aseptic techniques, the bacterial broth inocula were transferred to Mueller-Hinton plates and spread evenly, ensuring that the entire surface was inoculated. They were then left to dry for 3-5 minutes. The following control discs were used: Penicillin (10 μg), Tetracycline (30 μg), Chloramphenicol (30 μg), and Ampicillin (10 μg). Four antibiotic discs containing different compounds were placed equidistant from each other on a Mueller-Hinton plate. […] If clear rings of inhibition were present, the diameter was measured twice using a caliper. […] The paper towels were then allowed to dry. After, 5 cm from each edge of the paper towels was cut out (to prevent edge areas where spraying might have been irregular being tested), and from the remaining paper towels, a single hole punch machine was used to punch 6 mm paper discs from each of the paper towels.

Escherichia coli = assay: as above; conditions: for E. coli, diameter of ring of inhibition, antimicrobial paper towels: 6 mm paper discs punched from paper towels, antibiotic control discs 10 or 30 ug; for E. coli, diameter of ring of inhibition: Mueller-Hinton plate, 18-24 hrs at 37° C., 100 μg of compound per disc, control discs 10 or 30 μg
Protocol: as §1

[1] = tested on: Proteus mirabilis/hauseri; assay: as above; conditions: for P. hauseri, diameter of ring of inhibition, antimicrobial paper towels: 6 mm paper discs punched from paper towels, antibiotic control discs 10 or 30 ug; for P. hauseri, diameter of ring of inhibition: Mueller-Hinton plate, 18-24 hrs at 37° C., 100 μg of compound per disc, control discs 10 or 30 μg
Protocol: as §1

Staphylococcus aureus = assay: as above; conditions: for S. aureus, diameter of ring of inhibition, antimicrobial paper towels: 6 mm paper discs punched from paper towels, antibiotic control discs 10 or 30 ug; for S. aureus, diameter of ring of inhibition: Mueller-Hinton plate, 18-24 hrs at 37° C., 100 μg of compound per disc, control discs 10 or 30 μg
Protocol: as §1

Candida albicans = assay: Antifungal disk susceptibility test, rings of inhibition; conditions: for C. albicans, diameter of ring of inhibition: Sabouraud plate, 18-24 hrs at 37° C., 100 μg of compound per disc, Amphotericin B 50 ug or 20 μg
Protocol: (§2) Adapted from Messer et al., (2007), this protocol was used to test novel compounds for antifungal properties against yeasts and fungi. Compounds were tested for antifungal activity against pure cultures of Saccharomyces cerevisiae, Candida albicans supplied by Ward's Natural Science Ltd. and Aspergillus niger and Aspergillus fumigatus supplied by […]. (Inverness Medical, Ottawa, Ontario, Canada). All cultures were maintained on Sabouraud agar. […] The cultures of A. niger and A. fumigatus were transferred, using an inoculation loop, to new Sabouraud agar and grown for 48 hrs. at 27° C., and 35° C. respectively, to cause sporulation. Triplicates of all the plates and broth cultures were made in case of error or contamination. Using a sterile swab, and aseptic techniques, the cell suspension of S. cerevisiae, and C. albicans were transferred to Sabouraud agar plates and spread evenly, ensuring that the entire surface was inoculated. They were then left to dry for 10 minutes. […] The 0.2% Tween 80 reduces the hydrophobicity of the conidia, allowing the spores to be readily suspended (Messer et al., 2007). Alternatively two small circles containing fungal growth of the A Niger or A Fumigatus fungi were cut from the agar plates, and using a glass/PTFE tissue homoginzer, were mixed and homogenized with 5 ml of sterile MilliQ water to create a suspension of fungal spores. Using a sterile swab, and aseptic techniques, the spore inocula of A. niger and A. fumigatus were transferred to Sabouraud agar plates and spread evenly, ensuring that the entire surface was inoculated. They were then left to dry for 10 minutes. […] Four antibiotic discs containing different compounds were place equidistant apart on each Sabouraud plate. […] If clear rings of inhibition were present, the diameter was measured twice using a caliper. Halos indicated partial inhibition of growth (Hicks et al., 2008). […] The paper towels were then allowed to dry. After, 5 cm from each edge of the paper towels was cut out (to prevent edge areas where spraying might have been irregular being tested), and from the remaining paper towels, a single hole punch machine was used to punch 6 mm paper discs from each of the paper towels.

Saccharomyces cerevisiae = assay: as above; conditions: for S. cerevisiae, diameter of ring of inhibition: Sabouraud plate, 18-24 hrs at 37° C., 100 μg of compound per disc, Amphotericin B 50 ug or 20 μg
Protocol: as §2

Aspergillus fumigatus = assay: as above; conditions: for A. fumigatus, diameter of ring of inhibition: Sabouraud plate, 18-24 hrs at 35° C., 100 μg of compound per disc, Amphotericin B 100 ug or 20 μg
Protocol: (§3) Adapted from Messer et al., (2007), this protocol was used to test novel compounds for antifungal properties against yeasts and fungi. Compounds were tested for antifungal activity against pure cultures of Saccharomyces cerevisiae, Candida albicans supplied by Ward's Natural Science Ltd. and Aspergillus niger and Aspergillus fumigatus supplied by […]. (Inverness Medical, Ottawa, Ontario, Canada). All cultures were maintained on Sabouraud agar. […] The cultures of A. niger and A. fumigatus were transferred, using an inoculation loop, to new Sabouraud agar and grown for 48 hrs. at 27° C., and 35° C. respectively, to cause sporulation. Triplicates of all the plates and broth cultures were made in case of error or contamination. Using a sterile swab, and aseptic techniques, the cell suspension of S. cerevisiae, and C. albicans were transferred to Sabouraud agar plates and spread evenly, ensuring that the entire surface was inoculated. They were then left to dry for 10 minutes. […] The 0.2% Tween 80 reduces the hydrophobicity of the conidia, allowing the spores to be readily suspended (Messer et al., 2007). Alternatively two small circles containing fungal growth of the A Niger or A Fumigatus fungi were cut from the agar plates, and using a glass/PTFE tissue homoginzer, were mixed and homogenized with 5 ml of sterile MilliQ water to create a suspension of fungal spores. Using a sterile swab, and aseptic techniques, the spore inocula of A. niger and A. fumigatus were transferred to Sabouraud agar plates and spread evenly, ensuring that the entire surface was inoculated. They were then left to dry for 10 minutes. Amphotericin B (100 μg) in acetone was used as a control. Four antibiotic discs containing different compounds were place equidistant apart on each Sabouraud plate. […] If clear rings of inhibition were present, the diameter was measured twice using a caliper. Halos indicated partial inhibition of growth (Hicks et al., 2008). […] The paper towels were then allowed to dry. After, 5 cm from each edge of the paper towels was cut out (to prevent edge areas where spraying might have been irregular being tested), and from the remaining paper towels, a single hole punch machine was used to punch 6 mm paper discs from each of the paper towels.

Aspergillus niger = assay: as above; conditions: for A. niger, diameter of ring of inhibition: Sabouraud plate, 48 hrs at room temperature, 100 μg of compound per disc, Amphotericin B 100 ug or 20 μg
Protocol: as §3

Pseudomonas aeruginosa = assay: Antibiotic disk susceptibility test, rings of inhibition; conditions: for P. aeruginosa, diameter of ring of inhibition: Mueller-Hinton plate, 18-24 hrs at 37° C., 100 μg of compound per disc, control discs 10 or 30 μg
Protocol: as §1

[2] = 6 mm paper discs punched from paper towels, PAA-BZ-H 100 μg of solution onto paper discs, Amphotericin B 20 ug

Compound: CC1(C)S[C@@H]2[C@H](NC(=O)[C@H](N)c3ccccc3)C(=O)N2[C@H]1C(=O)O [Compound 12, Ampicillin]
- B. cereus, diameter of ring of inhibition, antimicrobial paper towels (Bacillus cereus): 13.5
- B. cereus, diameter of ring of inhibition (Bacillus cereus): 13.50
- E. coli, diameter of ring of inhibition, antimicrobial paper towels (Escherichia coli): 17.13
- E. coli, diameter of ring of inhibition (Escherichia coli): 17.13
- P. hauseri, diameter of ring of inhibition, antimicrobial paper towels [1]: 19
- P. hauseri, diameter of ring of inhibition [1]: 19.00
- S. aureus, diameter of ring of inhibition, antimicrobial paper towels (Staphylococcus aureus): 28.8
- S. aureus, diameter of ring of inhibition (Staphylococcus aureus): 28.80

Compound: Penicillin [Compound 9]
- E. coli, diameter of ring of inhibition, antimicrobial paper towels (Escherichia coli): 15.91
- E. coli, diameter of ring of inhibition (Escherichia coli): 15.91
- P. hauseri, diameter of ring of inhibition, antimicrobial paper towels [1]: 11
- P. hauseri, diameter of ring of inhibition [1]: 11.00
- S. aureus, diameter of ring of inhibition, antimicrobial paper towels (Staphylococcus aureus): 31.5
- S. aureus, diameter of ring of inhibition (Staphylococcus aureus): 31.50

Compound: C[C@@H]1[C@H](O)[C@@H](C)/C=C/C=C/C=C/C=C/C=C/C=C/C=C/[C@H](O[C@@H]2O[C@H](C)[C@@H](O)[C@H](N)[C@@H]2O)C[C@@H]2O[C@](O)(C[C@@H](O)C[C@@H](O)[C@H](O)CC[C@@H](O)C[C@@H](O)CC(=O)O[C@H]1C)C[C@H](O)[C@H]2C(=O)O [Compound 14, Amphotericin B]
- C. albicans, diameter of ring of inhibition, antimicrobial paper towels (Candida albicans; [2]): 9.7
- C. albicans, diameter of ring of inhibition (Candida albicans): 11.00
- S. cerevisiae, diameter of ring of inhibition, antimicrobial paper towels (Saccharomyces cerevisiae; [2]): 13.4
- S. cerevisiae, diameter of ring of inhibition (Saccharomyces cerevisiae): 10.80
- A. fumigatus, diameter of ring of inhibition, antimicrobial paper towels (Aspergillus fumigatus; [2]): 9.4
- A. fumigatus, diameter of ring of inhibition (Aspergillus fumigatus): 7.80
- A. niger, diameter of ring of inhibition, antimicrobial paper towels (Aspergillus niger; [2]): 8.7
- A. niger, diameter of ring of inhibition (Aspergillus niger): 8.80

Compound: O=C(N[C@H](CO)[C@H](O)c1ccc([N+](=O)[O-])cc1)C(Cl)Cl [Compound 11, Chloramphenicol]
- B. cereus, diameter of ring of inhibition, antimicrobial paper towels (Bacillus cereus): 26.3
- B. cereus, diameter of ring of inhibition (Bacillus cereus): 26.30
- E. coli, diameter of ring of inhibition, antimicrobial paper towels (Escherichia coli): 32.25
- E. coli, diameter of ring of inhibition (Escherichia coli): 32.25
- P. hauseri, diameter of ring of inhibition, antimicrobial paper towels [1]: 16.5
- P. hauseri, diameter of ring of inhibition [1]: 16.50
- S. aureus, diameter of ring of inhibition, antimicrobial paper towels (Staphylococcus aureus): 17.7
- S. aureus, diameter of ring of inhibition (Staphylococcus aureus): 17.70

Compound: CN(C)[C@@H]1C(O)=C(C(N)=O)C(=O)[C@@]2(O)C(O)=C3C(=O)c4c(O)cccc4[C@@](C)(O)[C@H]3C[C@@H]12 [Compound 10, Tetracycline]
- B. cereus, diameter of ring of inhibition, antimicrobial paper towels (Bacillus cereus): 20.3
- B. cereus, diameter of ring of inhibition (Bacillus cereus): 20.30
- E. coli, diameter of ring of inhibition, antimicrobial paper towels (Escherichia coli): 20.45
- E. coli, diameter of ring of inhibition (Escherichia coli): 20.45
- P. aeruginosa, diameter of ring of inhibition, antimicrobial paper towels (Pseudomonas aeruginosa; 6 mm paper discs punched from paper towels, antibiotic control discs 10 or 30 ug): 10.75
- P. aeruginosa, diameter of ring of inhibition (Pseudomonas aeruginosa): 10.75
- P. hauseri, diameter of ring of inhibition, antimicrobial paper towels [1]: 29.5
- P. hauseri, diameter of ring of inhibition [1]: 29.50
- S. aureus, diameter of ring of inhibition, antimicrobial paper towels (Staphylococcus aureus): 23.3
- S. aureus, diameter of ring of inhibition (Staphylococcus aureus): 23.30

Compound: CCCCCCCCCCCCCC[N+](C)(C)Cc1ccccc1.[Cl-] [Compound 15, Benzyldimethyltetradecylammonium chloride]
- C. albicans, diameter of ring of inhibition (Candida albicans): 7.48
- S. cerevisiae, diameter of ring of inhibition (Saccharomyces cerevisiae): 11.33
- A. fumigatus, diameter of ring of inhibition (Aspergillus fumigatus): 8.13
- A. niger, diameter of ring of inhibition (Aspergillus niger): 10.97
- B. cereus, diameter of ring of inhibition (Bacillus cereus): 14.30
- E. coli, diameter of ring of inhibition (Escherichia coli): 12.70
- P. aeruginosa, diameter of ring of inhibition (Pseudomonas aeruginosa): 8.13
- P. hauseri, diameter of ring of inhibition [1]: 12.63
- S. aureus, diameter of ring of inhibition (Staphylococcus aureus): 13.43

Compound: C[C@@H]1[C@H](O)[C@@H](C)/C=C/C=C/C=C/C=C/C=C/C=C/C=C/[C@H](O[C@@H]2O[C@H](C)[C@@H](O)[C@H](N)[C@@H]2O)C[C@@H]2O[C@](O)(C[C@@H](O)C[C@@H](O)[C@H](O)CC[C@@H](O)C[C@@H](O)CC(=O)O[C@H]1C)C[C@H](O)[C@H]2C(=O)O [Compound 13, Amphotericin B]
- C. albicans, diameter of ring of inhibition (Candida albicans): 9.35
- S. cerevisiae, diameter of ring of inhibition (Saccharomyces cerevisiae): 8.39
- A. fumigatus, diameter of ring of inhibition (Aspergillus fumigatus): 11.19
- A. niger, diameter of ring of inhibition (Aspergillus niger): 17.86
